Results as given in patent publication US20080070240A2, “COMPOSITION FOR DEAMINATING DNA AND METHOD OF DETECTING METHYLATED DNA” (Toyo Boseki Kabushiki Kaisha, priority 2004, published 2008).

Test: Measurement of solubility of sulfites in distilled water
Conditions: for Concentration, Calculated value: calculated from mass and molecular weight; for Concentration, Measured value (sulfite concentration, solubility): method 0-A
Method: To a cuvette for measuring absorbance (1×1×4 cm, manufactured by Hitachi High-Technologies Co.), 3 ml of 0.1 N hydrochloric acid (manufactured by Wako Pure Chemical Co., Ltd.) was added. To the cuvette, 30 μl of a sulfite solution diluted with distilled water was added, the cuvette was covered with parafilm, and inverted 3 times to mix the solutions.
Then, the mass, volume and pH at that time were measured. In addition, with regard to each solution, the sulfite concentration was measured in accordance with the method 0-A described above.
With regard to the concentration in the table, the calculated value represents the sulfite concentration (M (mol/l)) calculated from the mass and the molecular weight of each dissolved sulfite. In addition, the measured value represents the sulfite concentration (M) measured in accordance with the method 0-A described above.

O=S([O-])O.[Na+] [Sodium bisulfite, sodium bisulfite]
pH of saturated solution (30° C.): 4.4
Concentration, Calculated value (30° C.): 5.2 M
Concentration, Measured value (sulfite concentration, solubility) (30° C.): 5.0 M
pH of saturated solution (70° C.): 4.5
Concentration, Calculated value (70° C.): 6.5 M

O=S([O-])[O-].[Na+].[Na+] [Sodium sulfite, sodium sulfite]
pH of saturated solution (30° C.): 10.3
solubility (30° C., distilled water, saturated): 200 mg/mL
pH of saturated solution (70° C.): 10.5

ammonium sulfite monohydrate
Concentration, Measured value (sulfite concentration, solubility) (30° C.): 3.5 M
